Laboratory results: patent US9113629B2, “4-amino-6-(4-substituted-phenyl)-picolinates and 6-amino-2-(4-substituted-phenyl)-pyrimidine-4-carboxylates and their use as herbicides” (DOW AGROSCIENCES LLC, priority 2013, dated 2015)

System: Key Grass and Sedge Weeds as well as Grass Crops
Test: Post-emergent Test II herbicidal activity (Table 6)
Assay type: in vivo
Conditions: post-emergence, 336 h, ZEAMX: maize, corn (Zea mays), crop, 140 g ai/ha, read-out: Visual Growth Reduction (%) 14 Days After Application, ZEAMX
Summary of the method: (§1)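 Greenhouse-grown plants at first or second true leaf stage were sprayed post-emergence with compound in acetone/DMSO-based aqueous spray containing crop oil concentrate and surfactant, at 187 L/ha, highest rate plus ½× to 1/16× dilutions. After 14 d, injury was scored visually versus untreated plants, 0 (none) to 100% (complete kill).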

Row | SMILES | pest or weed control at 140 g/ha
1 | COC(=O)c1nc(-c2ccccc2)c(F)c(N)c1Cl [Compound 181] | 30 to 44%

System: Key Broadleaf Weed and Crop Species
Test: Post-emergent Test II herbicidal activity (Table 5)
Assay type: in vivo
Conditions: post-emergence, 336 h; ABUTH: velvetleaf (Abutilon theophrasti); application rate 70 g ai/ha; 14 days after application; read-out: Visual Growth Reduction (%) 14 Days After Application, ABUTH
Summary of the method: as §1

Row | SMILES | pest or weed control at 70 g/ha
2 | COC(=O)c1nc(-c2ccccc2)c(F)c(N)c1Cl [Compound 181] | 95 to 100%

Same assay, conditions: post-emergence, 336 h; ABUTH: velvetleaf (Abutilon theophrasti); application rate 140 g ai/ha; 14 days after application; read-out: Visual Growth Reduction (%) 14 Days After Application, ABUTH

Row | SMILES | pest or weed control at 140 g/ha
3 | COC(=O)c1nc(-c2ccccc2)c(F)c(N)c1Cl [Compound 181] | 95 to 100%

Same assay, conditions: post-emergence, 336 h; AMARE: redroot pigweed (Amaranthus retroflexus); application rate 70 g ai/ha; 14 days after application; read-out: Visual Growth Reduction (%) 14 Days After Application, AMARE

Row | SMILES | pest or weed control at 70 g/ha
4 | COC(=O)c1nc(-c2ccccc2)c(F)c(N)c1Cl [Compound 181] | 85 to 94%

Same assay, conditions: post-emergence, 336 h; AMARE: redroot pigweed (Amaranthus retroflexus); application rate 140 g ai/ha; 14 days after application; read-out: Visual Growth Reduction (%) 14 Days After Application, AMARE

Row | SMILES | pest or weed control at 140 g/ha
5 | COC(=O)c1nc(-c2ccccc2)c(F)c(N)c1Cl [Compound 181] | 95 to 100%

Same assay, conditions: post-emergence, 336 h; BRSNN: oilseed-rape, canola (Brassica napus); application rate 70 g ai/ha; 14 days after application; read-out: Visual Growth Reduction (%) 14 Days After Application, BRSNN

Row | SMILES | pest or weed control at 70 g/ha
6 | COC(=O)c1nc(-c2ccccc2)c(F)c(N)c1Cl [Compound 181] | 85 to 94%

Same assay, conditions: post-emergence, 336 h; BRSNN: oilseed-rape, canola (Brassica napus); application rate 140 g ai/ha; 14 days after application; read-out: Visual Growth Reduction (%) 14 Days After Application, BRSNN

Row | SMILES | pest or weed control at 140 g/ha
7 | COC(=O)c1nc(-c2ccccc2)c(F)c(N)c1Cl [Compound 181] | 95 to 100%

Same assay, conditions: post-emergence, 336 h; CHEAL: lambsquarters (Chenopodium album); application rate 70 g ai/ha; 14 days after application; read-out: Visual Growth Reduction (%) 14 Days After Application, CHEAL

Row | SMILES | pest or weed control at 70 g/ha
8 | COC(=O)c1nc(-c2ccccc2)c(F)c(N)c1Cl [Compound 181] | 95 to 100%

Same assay, conditions: post-emergence, 336 h; CHEAL: lambsquarters (Chenopodium album); application rate 140 g ai/ha; 14 days after application; read-out: Visual Growth Reduction (%) 14 Days After Application, CHEAL

Row | SMILES | pest or weed control at 140 g/ha
9 | COC(=O)c1nc(-c2ccccc2)c(F)c(N)c1Cl [Compound 181] | 95 to 100%

Same assay, conditions: post-emergence, 336 h; EPHHL: wild poinsettia (Euphorbia heterophylla); application rate 70 g ai/ha; 14 days after application; read-out: Visual Growth Reduction (%) 14 Days After Application, EPHHL

Row | SMILES | pest or weed control at 70 g/ha
10 | COC(=O)c1nc(-c2ccccc2)c(F)c(N)c1Cl [Compound 181] | 85 to 94%

Same assay, conditions: post-emergence, 336 h; EPHHL: wild poinsettia (Euphorbia heterophylla); application rate 140 g ai/ha; 14 days after application; read-out: Visual Growth Reduction (%) 14 Days After Application, EPHHL

Row | SMILES | pest or weed control at 140 g/ha
11 | COC(=O)c1nc(-c2ccccc2)c(F)c(N)c1Cl [Compound 181] | 95 to 100%

Same assay, conditions: post-emergence, 336 h; HELAN: sunflower (Helianthus annuus); application rate 70 g ai/ha; 14 days after application; read-out: Visual Growth Reduction (%) 14 Days After Application, HELAN

Row | SMILES | pest or weed control at 70 g/ha
12 | COC(=O)c1nc(-c2ccccc2)c(F)c(N)c1Cl [Compound 181] | 95 to 100%

Same assay, conditions: post-emergence, 336 h; HELAN: sunflower (Helianthus annuus); application rate 140 g ai/ha; 14 days after application; read-out: Visual Growth Reduction (%) 14 Days After Application, HELAN

Row | SMILES | pest or weed control at 140 g/ha
13 | COC(=O)c1nc(-c2ccccc2)c(F)c(N)c1Cl [Compound 181] | 95 to 100%

Same assay, conditions: post-emergence, 336 h; VIOTR: wild pansy (Viola tricolor); application rate 70 g ai/ha; 14 days after application; read-out: Visual Growth Reduction (%) 14 Days After Application, VIOTR

Row | SMILES | pest or weed control at 70 g/ha
14 | COC(=O)c1nc(-c2ccccc2)c(F)c(N)c1Cl [Compound 181] | 0 to 29%

Same assay, conditions: post-emergence, 336 h; VIOTR: wild pansy (Viola tricolor); application rate 140 g ai/ha; 14 days after application; read-out: Visual Growth Reduction (%) 14 Days After Application, VIOTR

Row | SMILES | pest or weed control at 140 g/ha
15 | COC(=O)c1nc(-c2ccccc2)c(F)c(N)c1Cl [Compound 181] | 0 to 29%
